Assays:
murine islets [1] = experiment: Total insulin content in murine islets; type: cell-based; conditions: 200 uM
Protocol: Murine islets were treated for 24 hrs with vehicle control (0 CMPF), 20 uM (20 CMPF), or 200 uM (200 CMPF) CMPF, and assessed for total insulin content and mRNA expression. […] Decreased expression of insulin processing enzymes PCSK1, 2 and CpE (F), (G), (H) indicate that CMPF may also impair post-translational insulin processing. Finally, CMPF causes decreased expression of the beta cell glucose transporter GLUT2, and GCK, the rate-limiting enzyme critical for glucose metabolism (I) and (J), perhaps impairing glucose sensing and metabolism. In all cases n=4, *P<0.05.
In the absence of apoptosis and necrosis, CMPF must be impairing GSIS by causing beta cell dysfunction. First, the effect of CMPF treatment on insulin biosynthesis was investigated to determine if insulin is available to be released upon stimulation. MIN6, murine and human islets were treated with vehicle control, 20 uM and 200 uM CMPF for 4 hrs (MIN6) or 24 hrs (islets), and total insulin content measured. […] Lower total insulin content may be due to either defective insulin processing from proinsulin to mature insulin, or insufficient insulin transcription. To determine the mechanism through which CMPF is reducing total insulin content, quantitative PCR (qPCR) was performed on RNA that was isolated from murine islets treated with either vehicle control or 200 uM CMPF for 24 hrs.

murine islets [2] = experiment: qPCR mRNA expression in treated murine islets; type: cell-based; conditions: 24 hrs
Protocol: First, the effect of CMPF treatment on insulin biosynthesis was investigated to determine if insulin is available to be released upon stimulation. MIN6, murine and human islets were treated with vehicle control, 20 uM and 200 uM CMPF for 4 hrs (MIN6) or 24 hrs (islets), and total insulin content measured. […] To determine the mechanism through which CMPF is reducing total insulin content, quantitative PCR (qPCR) was performed on RNA that was isolated from murine islets treated with either vehicle control or 200 uM CMPF for 24 hrs. […] Total RNA was extracted from 24 hour vehicle or CMPF-treated islets using the Qiagen RNeasy Plus mini kit (Hilden, Germany). Microarray analysis was performed as previously described (Basford et al. 2012) using the Affymetrix Mouse 430 2.0 Gene Chip at the University Health Network microarray center (Toronto, Canada). Significant changes were defined as P<0.05. Microarray data will be available on the NCBI GEO database at the time of publication. Human islet microarray data can be found at GE040709. Reverse transcription from total RNA and quantitative real time PCR (qPCR) analysis was performed as previously described (Basford et al. 2012). Primers were designed using Primer3 software (NCBI). Data were normalized to beta actin mRNA.

CD1 mice = experiment: IP injection for 3 or 7 days: monitoring, fasting values, OGTT, ipITT; type: in vivo; conditions: for fasting blood glucose / fasting plasma insulin / glucose tolerance (OGTT) / insulin secretion during OGTT: 14 hr fast
Protocol: CD1 mice were injected IP with either vehicle control (black) or CMPF (white). A) Plasma samples were taken at 10, 30, 60, 120 and 360 minutes post-IP injection and assayed for CMPF. […] Over the 3-day course of IP injections, mice were monitored for body weight (B), random-fed blood glucose (C) and plasma insulin (C). There was no difference in any of these parameters. Following 3 consecutive days of CMPF injections, mice were fasted for 14 hrs and OGTTs were performed.
CD1 mice were injected IP with either vehicle control (black) or CMPF (white). Over the 7-day course of IP injections, mice were monitored for body weight (A), and random-fed blood glucose (B) and plasma insulin (C). […] The lower body weights on day 8 are following a 14-hour fast, immediately prior to the OGTTs. Following 7 consecutive days of CMPF injections, mice were fasted for 14 hrs and OGTTs were performed. […] (n=8 per group, p<0.05).
To investigate the effect of CMPF on glucose homeostasis, (FIG. 8C). […] Therefore, elevated plasma CMPF concentrations cause impaired beta cell function and prevent GSIS in vivo, resulting in glucose intolerance. Chronically elevated CMPF levels may also induce insulin resistance. […]

mouse islets = experiment: Microarray analysis of 24 hr treated islets; type: cell-based; conditions: 24 hr treatment
Protocol: A) Expression of insulin, insulin processing enzymes, insulin transcription factors and glucose-sensing genes in 24-hour treated islets (N=5-6/group). B) MMP following 24-hour incubation with control or 200 μM CMPF, and change in fluorescence (N=4/group). […] Values are mean+/−SEM. Student's t-test (a,c), one-way ANOVA (b). *P<0.05, **P<0.01
Total RNA was extracted from 24 hour vehicle or CMPF-treated islets using the Qiagen RNeasy Plus mini kit (Hilden, Germany). Microarray analysis was performed as previously described (Basford et al. 2012) using the Affymetrix Mouse 430 2.0 Gene Chip at the University Health Network microarray center (Toronto, Canada). Significant changes were defined as P<0.05. Microarray data will be available on the NCBI GEO database at the time of publication. Human islet microarray data can be found at GE040709. Reverse transcription from total RNA and quantitative real time PCR (qPCR) analysis was performed as previously described (Basford et al. 2012). Primers were designed using Primer3 software (NCBI). Data were normalized to beta actin mRNA.
Given that CMPF causes hyperinsulinemia during the fed-state in vivo, and exaggerated secretion of insulin from islets under non-stimulatory conditions in vitro, we rationalized that there must be a defect in glucose-sensing and/or secretion of insulin that could not be solely explained by effects on insulin production. […] To confirm changes in mitochondrial function, 24 hr CMPF treated islets were analyzed by microarray. […] When organized based on biological process, the largest differentially expressed cluster encompassed genes involved in metabolism (38%) (FIG. 17c). […] Such a switch can decrease the beta-cell's ability to sense and metabolize glucose, limiting their capacity for GSIS thus may explain CMPF's effect on beta-cells (Hue et al., 2009).

[3] = after seven days of IP injection
[4] = after three days of IP injection

Question: Which results are given for `CCCc1oc(CCC(=O)O)c(C(=O)O)c1C` [CMPF, 3-carboxy-4-methyl-5-propyl-2-furanpropanoic acid]?
Answer: total DNA (murine islets [1]): absence of changes; total insulin content (murine islets [1]; 24 hrs, vs vehicle): significantly reduced; CpE mRNA (murine islets [2]; 200 uM): significantly lower levels; GCK expression (murine islets [2]; 200 uM): trend toward lower expression; GLUT2 expression (murine islets [2]; 200 uM): significantly reduced; HNF4a mRNA (murine islets [2]; 200 uM): significant reduction; MAFA mRNA (murine islets [2]; 200 uM): significant reduction; PCSK1 mRNA (murine islets [2]; 200 uM): trending lower levels; PCSK2 mRNA (murine islets [2]; 200 uM): trending lower levels; PDX1 mRNA (murine islets [2]; 200 uM): significant reduction; insulin mRNA (murine islets [2]; 200 uM): significant reduction; Ucp2 expression (murine islets [2]): Increased antioxidant gene expression; catalase (Cat) expression (murine islets [2]): Increased antioxidant gene expression; body weight (CD1 mice; 3-day course of IP injections): no difference; random-fed blood glucose (CD1 mice; 3-day course of IP injections): no difference; random-fed plasma insulin (CD1 mice; 3-day course of IP injections): no difference; body weight (CD1 mice; 7-day course of IP injections): no difference; random-fed blood glucose (CD1 mice; 7-day course of IP injections): no difference; fasting blood glucose (CD1 mice; [3]): significantly higher; fasting plasma insulin (CD1 mice; [3]): significantly higher; fasting blood glucose (CD1 mice; [4]): significantly higher; fasting plasma insulin (CD1 mice; [4]): significantly lower; glucose tolerance (OGTT) (CD1 mice; after 3 days of IP injection): impaired glucose tolerance; insulin secretion during OGTT (CD1 mice; after 3 days of IP injection): significantly impaired insulin secretion; glucose tolerance (OGTT) (CD1 mice; after 7 days of IP injection): significantly impaired glucose tolerance; insulin secretion during OGTT (CD1 mice; after 7 days of IP injection): significantly impaired insulin secretion; random-fed plasma insulin (CD1 mice; days 4-7 of injections): significantly elevated; fed-state glucagon (CD1 mice; seven-day treatment): hyperglucagonemia; insulin sensitivity by insulin-tolerance testing (ipITT) (CD1 mice; seven-day treatment, vs vehicle): no significant difference; genes related to fat oxidation (mouse islets): significant upregulation; share of differentially expressed genes in the metabolism cluster (mouse islets): 38%; transcripts significantly differentially expressed (mouse islets): 6.2%

— patent US9726659B2, “CMPF as a biomarker for diabetes and associated methods” (The Governing Council of the University of Toronto, priority 2012, dated 2017)
